Laboratory results from the NIST ThermoML archive (doi:10.1016/j.jct.2017.06.008).

What was measured:
[1] = xn = mol fraction of the nth substance listed; conditions: 100 kPa, Liquid; for speed of sound: Frequency=3 MHz, Single path-length method; for mass density: Vibrating tube method
[2] = refractive index (Na D-line) (dimensionless); xn = mol fraction of the nth substance listed; conditions: 100 kPa, Liquid, Standard Abbe refractometry

CC(=O)CC(C)C [4-methylpentan-2-one] + C1CCCCC1
Conditions	mass density, 293.15 K [kg/m3]	mass density, 303.15 K [kg/m3]	mass density, 313.15 K [kg/m3]	refractive index, 293.15 K	refractive index, 303.15 K	refractive index, 313.15 K	speed of sound, 293.15 K [m/s]	speed of sound, 303.15 K [m/s]	speed of sound, 313.15 K [m/s]
[1], x1 = 0.0978	778	769	759	–	–	–	1260.7	1212.6	1165.6
[1], x1 = 0.1984	780	770	760	–	–	–	1246.9	1200	1154
[1], x1 = 0.3014	781	772	762	–	–	–	1236.2	1190.3	1145.3
[1], x1 = 0.4007	783	774	764	–	–	–	1228.8	1183.5	1139.2
[1], x1 = 0.5023	786	776	767	–	–	–	1222	1178	1134.6
[1], x1 = 0.6028	788	779	770	–	–	–	1217.4	1174.2	1131.6
[1], x1 = 0.7038	791	782	773	–	–	–	1214.2	1171.8	1129.9
[1], x1 = 0.8062	794	785	776	–	–	–	1212.1	1170.4	1129.2
[1], x1 = 0.9004	797	788	779	–	–	–	1211.3	1170.2	1129.6
[1], x1 = 1	801	792	782	–	–	–	1212.3	1171.4	1131.4
[2], x1 = 0.0978	–	–	–	1.421	1.416	1.411	–	–	–
[2], x1 = 0.1984	–	–	–	1.417	1.412	1.406	–	–	–
[2], x1 = 0.3014	–	–	–	1.413	1.408	1.403	–	–	–
[2], x1 = 0.4007	–	–	–	1.41	1.405	1.4	–	–	–
[2], x1 = 0.5023	–	–	–	1.407	1.402	1.397	–	–	–
[2], x1 = 0.6028	–	–	–	1.404	1.399	1.394	–	–	–
[2], x1 = 0.7038	–	–	–	1.402	1.397	1.392	–	–	–
[2], x1 = 0.8062	–	–	–	1.399	1.395	1.39	–	–	–
[2], x1 = 0.9004	–	–	–	1.398	1.393	1.388	–	–	–
[2], x1 = 1	–	–	–	1.396	1.391	1.387	–	–	–

CC(=O)CC(C)C [4-methylpentan-2-one] + CC#N
Conditions	mass density, 293.15 K [kg/m3]	mass density, 303.15 K [kg/m3]	mass density, 313.15 K [kg/m3]	refractive index, 293.15 K	refractive index, 303.15 K	refractive index, 313.15 K	speed of sound, 293.15 K [m/s]	speed of sound, 303.15 K [m/s]	speed of sound, 313.15 K [m/s]
[1], x1 = 0.102	786	776	765	–	–	–	1280.4	1239.9	1199.1
[1], x1 = 0.1961	790	779	769	–	–	–	1267.6	1226.3	1185.4
[1], x1 = 0.3082	792	782	772	–	–	–	1255.2	1213.5	1172.5
[1], x1 = 0.4019	794	784	774	–	–	–	1245.9	1204.6	1163.8
[1], x1 = 0.5188	796	787	777	–	–	–	1237.4	1195.8	1155
[1], x1 = 0.6001	797	788	778	–	–	–	1231.4	1190.3	1149.7
[1], x1 = 0.7014	798	789	779	–	–	–	1225.4	1184.5	1144
[1], x1 = 0.8008	799	790	780	–	–	–	1220.8	1179.6	1139.3
[1], x1 = 0.8801	800	791	781	–	–	–	1216.6	1175.9	1135.7
[1], x1 = 1	801	792	782	–	–	–	1212.3	1171.4	1131.4
[2], x1 = 0.102	–	–	–	1.355	1.35	1.345	–	–	–
[2], x1 = 0.1961	–	–	–	1.363	1.358	1.353	–	–	–
[2], x1 = 0.3082	–	–	–	1.371	1.366	1.361	–	–	–
[2], x1 = 0.4019	–	–	–	1.376	1.371	1.367	–	–	–
[2], x1 = 0.5188	–	–	–	1.381	1.377	1.372	–	–	–
[2], x1 = 0.6001	–	–	–	1.385	1.38	1.375	–	–	–
[2], x1 = 0.7014	–	–	–	1.388	1.384	1.379	–	–	–
[2], x1 = 0.8008	–	–	–	1.391	1.387	1.382	–	–	–
[2], x1 = 0.8801	–	–	–	1.393	1.389	1.384	–	–	–
[2], x1 = 1	–	–	–	1.396	1.391	1.387	–	–	–

CC(=O)CC(C)C [4-methylpentan-2-one] + CC(C)=O
Conditions	mass density, 293.15 K [kg/m3]	mass density, 303.15 K [kg/m3]	mass density, 313.15 K [kg/m3]	refractive index, 293.15 K	refractive index, 303.15 K	refractive index, 313.15 K	speed of sound, 293.15 K [m/s]	speed of sound, 303.15 K [m/s]	speed of sound, 313.15 K [m/s]
[1], x1 = 0.1004	791	780	769	–	–	–	1185.7	1140.9	1096.8
[1], x1 = 0.1992	793	782	771	–	–	–	1186.8	1143	1099.4
[1], x1 = 0.3012	794	783	773	–	–	–	1189.2	1145.9	1102.9
[1], x1 = 0.396	795	785	774	–	–	–	1191.8	1149	1106.4
[1], x1 = 0.5005	796	786	776	–	–	–	1194.8	1152.4	1110.4
[1], x1 = 0.6912	798	788	779	–	–	–	1201.1	1159.5	1118.3
[1], x1 = 0.7996	799	790	780	–	–	–	1205.2	1163.6	1122.9
[1], x1 = 0.8992	799	791	781	–	–	–	1208	1167.2	1126.9
[1], x1 = 1	800	792	782	–	–	–	1212.3	1171.4	1131.4
[2], x1 = 0.1004	–	–	–	1.365	1.359	1.354	–	–	–
[2], x1 = 0.1992	–	–	–	1.37	1.364	1.359	–	–	–
[2], x1 = 0.3012	–	–	–	1.374	1.369	1.365	–	–	–
[2], x1 = 0.396	–	–	–	1.378	1.373	1.368	–	–	–
[2], x1 = 0.5005	–	–	–	1.382	1.377	1.372	–	–	–
[2], x1 = 0.6912	–	–	–	1.388	1.383	1.379	–	–	–
[2], x1 = 0.7996	–	–	–	1.391	1.386	1.382	–	–	–
[2], x1 = 0.8992	–	–	–	1.394	1.389	1.384	–	–	–
[2], x1 = 1	–	–	–	1.396	1.391	1.387	–	–	–

CC(=O)CC(C)C [4-methylpentan-2-one] + C[S+](C)[O-]
Conditions	mass density, 293.15 K [kg/m3]	mass density, 303.15 K [kg/m3]	mass density, 313.15 K [kg/m3]	refractive index, 293.15 K	refractive index, 303.15 K	refractive index, 313.15 K	speed of sound, 293.15 K [m/s]	speed of sound, 303.15 K [m/s]	speed of sound, 313.15 K [m/s]
[1], x1 = 0.1002	1052	1043	1033	–	–	–	1453.8	1418.9	1384.7
[1], x1 = 0.2004	1010	1001	991	–	–	–	1409.2	1373.8	1339.2
[1], x1 = 0.3004	973	964	954	–	–	–	1371.9	1336	1300.8
[1], x1 = 0.4007	940	931	921	–	–	–	1338.7	1302.9	1267.1
[1], x1 = 0.4982	912	902	893	–	–	–	1311.8	1275.3	1238.9
[1], x1 = 0.5999	885	875	866	–	–	–	1287.1	1249.8	1212.7
[1], x1 = 0.6992	861	851	842	–	–	–	1266.1	1227.9	1190
[1], x1 = 0.7995	839	830	820	–	–	–	1246.5	1207.5	1168.9
[1], x1 = 0.8981	819	810	801	–	–	–	1229.3	1189.2	1149.9
[1], x1 = 1	801	792	782	–	–	–	1212.3	1171.4	1131.4
[2], x1 = 0.1002	–	–	–	1.466	1.462	1.458	–	–	–
[2], x1 = 0.2004	–	–	–	1.455	1.451	1.446	–	–	–
[2], x1 = 0.3004	–	–	–	1.445	1.441	1.436	–	–	–
[2], x1 = 0.4007	–	–	–	1.436	1.432	1.427	–	–	–
[2], x1 = 0.4982	–	–	–	1.428	1.423	1.419	–	–	–
[2], x1 = 0.5999	–	–	–	1.42	1.416	1.411	–	–	–
[2], x1 = 0.6992	–	–	–	1.413	1.409	1.404	–	–	–
[2], x1 = 0.7995	–	–	–	1.407	1.402	1.398	–	–	–
[2], x1 = 0.8981	–	–	–	1.401	1.397	1.392	–	–	–
[2], x1 = 1	–	–	–	1.396	1.391	1.387	–	–	–
